Reference: patent US9757403B2, “Glycan therapeutics and related methods thereof” (KALEIDO BIOSCIENCES, INC., priority 2015, dated 2017)

System: Clostridium difficile (strain VPI 10463 (ATCC-43255))
Assay: Mouse model of Clostridium difficile infection, disease-associated phenotypes and spore carriage
Type: in vivo, Mice (female C57BL/6)
Description: This experiment was conducted to analyze the effects of glycan therapeutics in a mouse model of Clostridium difficile infection (Chen et al, 2008, A Mouse Model of Clostridium difficile-Associated Disease. Gastroenterology 135(6), 1984-1992). In this model, normal mice were exposed to an antibiotic regimen that renders them susceptible to C. difficile infection and disease symptoms, similar with respect to their development and manifestation of human clinical disease. In humans, the disease is most often the result of exposure to broad spectrum antibiotics which is thought to result in intestinal dysbiosis and subsequent increased colonic colonization with C. difficile. […]
Disease-associated phenotypes were recorded for a duration of ten days starting on the day of Clostridium difficile challenge (on day 0) through day 10. The phenotypes, including lethargy, hunched posture and ruffled coat, wet tail/abdomen and hypothermia were scored from 0 to 4: Normal=0; Lethargic=1; Lethargic+Hunched=2; Lethargic+Hunched+Wet tail/abdomen (diarrhea)=3; and Lethargic+Hunched+Wet tail/abdomen+Hypothermic=4. Death (day 0 to day 10 or 11) and weight (day 1 to day 7 and day 10) of the animals was also monitored and recorded.
In addition, carriage of Clostridium difficile spores, which is indicative of Clostridium difficile gut colonization in both mice and humans, was assessed daily from day 0 to day 6. […]

With `CN[C@H](CC(C)C)C(=O)N[C@H]1C(=O)N[C@@H](CC(N)=O)C(=O)N[C@H]2C(=O)N[C@H]3C(=O)N[C@H](C(=O)N[C@H](C(=O)O)c4cc(O)cc(O)c4-c4cc3ccc4O)[C@H](O)c3ccc(c(Cl)c3)Oc3cc2cc(c3O[C@@H]2O[C@H](CO)[C@@H](O)[C@H](O)[C@H]2O[C@H]2C[C@](C)(N)[C@H](O)[C@H](C)O2)Oc2ccc(cc2Cl)[C@H]1O` [Vancomycin, vancomycin] the “clinical signs on day 10” value (PO gavage QD days 0 to 4) was “exhibited clinical signs” and the “clinical score of survivors” value (score 0 to 4, after end of treatment, days 7 to 10) was “above 0”.
